Experiments:
[1] = test system: MDA-MB-231 breast cancer tumours subcutaneously xenografted into the SCID mice; experiment: Growth of MDA-MB-231 tumours xenografted into SCID mice; type: in vivo; settings: CuET 1 mg/kg i.p., 5 days ON and 2 days OFF
Procedure: To test directly effect of CuET-albumin nanoparticles we used MDA-MB-231 and AMO1 models. MDA-MB-231 was injected (5*10^6 cells were transplanted s.c.) to grow tumours in SCID mice (Anlab, CZ). Similarly, the AMO-1 xenografts were expanded in SCID mice. Each group consisted of 10 animals, each bearing two tumours. CuET was formulated as nanoparticulate system in mouse serum albumin according to Example 12 or as the neat CuET powder (obtained from TOKYO CHEMICAL […] CO., LTD.) dissolved in olive oil which is a standard formulation for non-polar compounds applied intraperitoneally in the mice experiments to final concentration 1 mg/ml. Olive oil alone and mouse serum albumin solutions were used as the vehicle controls. All solutions were applied intraperitoneally in a schedule 5 days ON and 2 days OFF, the CuET was applied in the final dose 1 mg per kg of body weight. All aspects of the animal studies met the accepted criteria for the care and experimental use of laboratory animals.

[2] = cited from earlier work

CCN(CC)C(=S)[S-].CCN(CC)C(=S)[S-].[Cu+2] [neat CuET powder, bis(diethyldithiocarbamate)copper(II)]
effect on tumour growth [1]: Only the CuET-albumin nanoparticle shows significant effect | solubility constant in water [2]: in the range of nanograms per litre
